Source: patent US20250269043A1, “TARGETED BIFUNCTIONAL DEGRADERS” (YALE UNIVERSITY, priority 2019, published 2025)

Assays:
HepG2 cells [1] = test: DNP-GN3-mediated endocytosis of fluorescently labeled α-DNP antibody by adherent HepG2 cells; type: cell-based, human; conditions: sodium azide and 2-deoxyglucose as combined treatment; FIG. 89
Description: It was next explored whether DNP-GN3 mediates the endocytosis of fluorescently labeled α-DNP antibody.
To explore the cellular mechanism of antibody uptake, cells were treated with chemical inhibitors of several endocytic pathways (FIG. 89).

HepG2 cells [2] = test: DNP-AF3-mediated α-DNP antibody endocytosis by HepG2 cells (flow cytometry); type: cell-based, human; conditions: 40 nM DNP-AF3, 100 nM antibody; for effect of endocytic pathway inhibitors on DNP-AF3-mediated α-DNP antibody endocytosis: FIG. 106; for effect of competitive binders on DNP-AF3-mediated α-DNP antibody endocytosis: ASF 2.07 μM, AF and GalNAc 1.25 mM, FIG. 105
Description: The intracellular fluorescence of cells that were incubated at 37° C. with both fluorescently labeled α-DNP antibody and DNP-AF3 for a given amount of time was examined. Cells were then washed, removed from the plate with trypsin, and subjected to flow cytometry.
It was then determined if reagents which inhibit ternary complex formation inhibit endocytosis mediated by DNP-AF3.
Next, whether inhibitors of specific endocytic pathways inhibited α-DNP antibody endocytosis was determined (FIG. 106).

HepG2 cells [3] = test: MIF-GN3-mediated endocytosis of Alexa 488-labeled human MIF by HepG2 cells; conditions: for effect of endocytic pathway inhibitors on MIF-GN3-mediated MIF endocytosis: MIF 100 nM, MIF-GN3 200 nM, FIG. 132; for toxicity of endocytosis inhibitors to cells: HepG2 cells in the presence of MIF and MIF-GN3
Description: Human MIF protein was fluorescently labeled with Alexa 488 NHS ester, then incubated with HepG2 cells in the presence of varying levels of MIF-GN3.
The ability of MIF-GN3 to mediate MIF endocytosis over a wide range of target protein concentrations was assessed.
Next, inhibitors of various endocytic pathways were utilized to determine if MIF-GN3 mediates MIF endocytosis in a manner consistent with ASGPR (FIG. 132).

human MIF [4] = molecular target: T1, human MIF (Homo sapiens, UniProt P14174); test: Depletion of human MIF from cell culture supernatant (sandwich ELISA); type: cell-based; conditions: 24 hours; FIG. 128B
T1 sequence (P14174 2-115 limits assumed): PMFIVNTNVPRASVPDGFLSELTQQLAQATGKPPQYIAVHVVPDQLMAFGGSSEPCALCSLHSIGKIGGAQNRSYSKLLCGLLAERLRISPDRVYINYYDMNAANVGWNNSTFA
Description: The ability of bifunctional MIF-binding molecules to mediate the depletion of human MIF from cell culture was investigated. In these assays, human MIF was present at a concentration of 100 nM, and a sandwich ELISA assay was utilized to measure the concentration of human MIF remaining in the cell culture supernatant. The closely related bifunctional molecules MIF-GN3, MIF-PEG2-GN3, and MIF-PEG4-GN3 were used, as well as the structurally dissimilar molecule MIF-NVS-PEG3-GN3. […] Based on the ease of its synthesis and its efficacy in this experiment, MIF-GN3 was utilized for further studies. It was next investigated whether the MIF inhibitor 3w mediates MIF depletion from cell culture supernatant. […] When cells were treated with 3w, no depletion of exogenous MIF protein was observed after 24 hours (FIG. 128B).
Bifunctional molecules containing optimized ASGPR-binding motifs are also capable of mediating MIF depletion from cell culture supernatant (FIG. 129). The MIF-binding molecule MIF-AF1, which contains only a single ASGPR-binding sugar, was not effective at mediating depletion of MIF from supernatant at any concentration tested. It is hypothesized that this is due to the compound's low predicted affinity for ASGPR (μM range). […] At a concentration of either 200 nM or 1 μM, MIF-AF2 mediated nearly 100%/o depletion of MLF from the cell culture supernatant after 48 hours. […] In contrast to these molecules, which utilize optimized synthetic ASGPR ligands, the GalNAc-based molecule MIF-GN3 mediated only 67.0% and 56.0% removal of MIF from supernatant after 48 hours at concentrations of 1 μM and 200 nM, respectively. […] At a concentration of 40 nM (4.0 pmol of molecule), MIF-AF3 mediates the removal of 83.2% of MIF present in the cell culture supernatant, or 8.32 pmol of human MIF protein. Therefore, it was concluded that under the conditions of this experiment, MIF-AF3 mediates the depletion of 2.08 molar equivalents of MIF protein.

PC3 cells = test: PC3 human prostate cancer cell tumor model in mice; type: in vivo; conditions: MIF-GN3 at 10 mpk; control arms DNP-GN3 and 3w; FIG. 138
Description: The ability of MIF-GN3 to mediate the depletion of MIF in a therapeutically relevant disease model was investigated. […] An experiment was conducted to determine whether the bifunctional molecule MIF-GN3 can deplete sufficient human MIF from serum to slow PC3 tumor growth. Mice were injected with an aliquot of PC3 cells, and the size of the resultant tumors as well as the levels of human MIF in serum were monitored over five weeks. […] Five weeks after the initial PC3 cell injection, the first of the mice reached maximal tumor size ([…]) and was sacrificed (FIG. 138). […] The decrease in human MIF levels mediated by MIF-GN3 is consistent with a mechanism of action in which MIF-GN3 mediates the depletion and degradation of circulating MIF protein. While the α-MIF antibody would not necessarily be expected to decrease the levels of human MIF, it is possible that the antibody mediates MIF neutralization in a manner which masks its signal as determined by ELISA. Alternatively, the α-MIF antibody may mediate depletion or degradation of huMIF by some endocytic mechanism. Another possible explanation is that the α-MIF antibody decrease serum levels of active human MIF to such an extent at early time points that PC3 cells proliferate much more slowly, and therefore fewer cells are actively secreting human MIF.
Mice were sacrificed when their tumor volumes reached 1000 mm^3. […] At this same time point, less than 25% of the mice in any other arm had survived.

human MIF [5] = molecular target: T1, human MIF; test: Depletion of injected recombinant human MIF from serum in mice; type: in vivo; design: injected into mice; conditions: control molecules injected along with human MIF; FIG. 136
Description: In vivo human MIF depletion experiments were undertaken to determine whether MIF-GN3 can mediate the depletion of injected recombinant human MIF from serum in mice. Mice were injected with five μg of the human MIF protein. In this experiment, one group of mice was also injected with a single 10 mpk dose of MLF-GN3 along with human MIF protein. It was observed that after four hours, the average level of human MIF in serum in the PBS-treated mice was 1.76 ng/mL (FIG. 134). In mice treated with 10 mpk MIF-GN3, however, the concentration of human MIF in serum was 0.68 ng/mL. One day after the initial injection, human MIF levels had reached background levels for both conditions. […] It was hypothesized that, due to the short half-life of human MIF in serum, investigating human MIF levels at earlier time points may be more informative.
Next, an experiment was performed to determine whether MIF-GN3 could enhance MIF clearance at time points earlier than four hours. Mice were coinjected with recombinant human MIF and 10 mpk MIF-GN3 via either i.p. or i.v. routes. For the PBS control arms, human MIF was injected with PBS. It was observed that in the absence of MIF-GN3, there was a spike in huMIF levels in circulation after 30 minutes (FIG. 135). In the presence of MIF-GN3, however, levels of MIF protein remained low at 30 minutes and no spike in its concentration was observed. By two hours, the levels of human MIF in circulation decreased to background levels.
In a further experiment, whether an inhibitor of the MIF protein (3w) is able to mediate the protein's depletion from serum was determined. A bifunctional molecule that mediates the depletion of α-DNP antibody from serum was also assayed as a negative control. Neither of these molecules was expected to mediate the formation of a ternary complex between human MIF protein and ASGPR.

α-DNP antibody = test: In vivo depletion of α-DNP antibody from serum in mice (ELISA); conditions: FIG. 95
Description: FIG. 94 illustrates that serum levels of α-DNP antibody decrease more rapidly following repeated treatment with DNP-GN3. Serum antibody levels were measured using an ELISA assay. Each experimental group contained three mice. Statistical differences in experiments involving in vivo depletion of α-DNP antibody were assessed by repeated measures two-way ANOVA with Tukey's tests for post-hoc comparison of simple effects between each of the treatment groups and PBS.
Single doses of DNP-GN3 were also found to be efficacious at mediating α-DNP antibody depletion, albeit less effectively than daily dosing (FIG. 96). […] Therefore, it was concluded that DNP-GN3 is able to mediate the depletion of a monoclonal antibody from serum, and functions across a wide range of target protein concentrations and dosing regimens.
DNP-GN3 was also found to be efficacious in depleting polyclonal α-DNP antibody from serum collected from mice immunized with DNP-keyhole limpet haemocyanin (KLH) (FIG. 97). […] Thus, the small molecule DNP-GN3 is not restricted in function to only monoclonal mouse antibodies, but is also effective at removing polyclonal α-DNP antibodies from circulation in mice.

[6] = molecular target: human IgG (Alexa 488-labeled) (human); test: cell-based or functional assay

| Molecule | effect of endocytic pathway inhibitors on intracellular fluorescence (DNP-GN3-mediated uptake) (HepG2 cells [1]) | effect of endocytic pathway inhibitors on DNP-AF3-mediated α-DNP antibody endocytosis (HepG2 cells [2]) | effect of endocytic pathway inhibitors on MIF-GN3-mediated MIF endocytosis (HepG2 cells [3]) | also measured |
| --- | --- | --- | --- | --- |
| O=CC[C@@H](O)[C@H](O)[C@H](O)CO [2-deoxyglucose] | significantly decreased | significant decrease | decreased significantly | – |
| Oc1ccc(-n2cc(-c3ccc4cc(OCCOCCN5CCOCC5)ccc4n3)nn2)cc1F [Compound 3w] | – | – | – | depletion of exogenous MIF protein from cell culture supernatant (human MIF [4]): no depletion; tumor growth (PC3 cells): not found to decrease tumor growth; human MIF concentration in serum compared to the PBS control (human MIF [5]): no significant decreases |
| C=C1[C@@H](C)[C@H]2[C@H](Cc3ccccc3)NC(=O)[C@]23[C@H](OC(C)=O)/C=C/[C@@](C)(O)C(=O)[C@@H](C)C/C=C/[C@H]3[C@@H]1O [CytD] | – | non-significant decrease | – | – |
| O=C(CCOCC(COCCC(=O)NCCOCCOCCO)(COCCC(=O)NCCOCCOCCO)NC(=O)CNC(=O)COCCOCCOCCNc1ccc([N+](=O)[O-])cc1[N+](=O)[O-])NCCOCCOCCO [DNP-OH3] | – | – | – | antibody depletion from serum after negative control compound (α-DNP antibody): No accelerated antibody depletion; effect of competitive binders on DNP-AF3-mediated α-DNP antibody endocytosis (HepG2 cells [2]): decreased to near-background levels |
| CC(=O)N[C@H]1C(O)O[C@H](CO)[C@H](O)[C@@H]1O (stereo partly shown) [GalNAc, N-acetylgalactosamine] | – | – | – | effect of competitive binders on DNP-AF3-mediated α-DNP antibody endocytosis (HepG2 cells [2]): significantly decreased |
| N=C(N)NC(=O)c1nc(Cl)c(N)nc1N [amiloride, Amiloride] | did not significantly decrease | decrease in cellular fluorescence | did not impact cellular fluorescence significantly | – |
| C=C1[C@@H](C)[C@H]2[C@H](Cc3ccccc3)NC(=O)[C@]23[C@H](OC(C)=O)/C=C/[C@@](C)(O)C(=O)[C@@H](C)C/C=C/[C@H]3[C@@H]1O [cytochalasin D] | did not significantly decrease | – | – | toxicity of endocytosis inhibitors to cells (HepG2 cells [3]): toxic |
| O=c1c(-c2ccc(O)cc2)coc2cc(O)cc(O)c12 [genistein, Genistein] | – | did not significantly decrease | – | toxicity of endocytosis inhibitors to cells (HepG2 cells [3]): toxic |
| COc1ccc2c(c1)c(CC(=O)O)c(C)n2C(=O)c1ccc(Cl)cc1 [indomethacin, Indomethacin] | – | did not significantly decrease | did not decrease | – |
| CC[C@@]1([C@@H]2O[C@@H]([C@H]3O[C@@](O)(CO)[C@H](C)C[C@@H]3C)C[C@@H]2C)CC[C@H]([C@]2(C)CC[C@]3(C[C@H](O)[C@@H](C)[C@@H]([C@@H](C)[C@@H](OC)[C@H](C)C(=O)O)O3)O2)O1 [monensin, Monensin] | significantly decreased | – | near background levels | – |
| C[C@@H]1[C@H](O)[C@@H](C)/C=C/C=C/CC/C=C/C=C/C=C/C=C/C(O[C@H]2O[C@H](C)[C@@H](O)[C@H](N)[C@@H]2O)CC2O[C@](O)(CC(O)C(O)CCC(O)CC(O)CC(O)CC(=O)O[C@H]1C)CC(O)C2C(=O)O (stereo partly shown) [nystatin, Nystatin] | did not significantly decrease | did not significantly decrease | did not decrease | – |
| OC[C@H]1O[C@@](CO)(O[C@H]2O[C@H](CO)[C@@H](O)[C@H](O)[C@H]2O)[C@@H](O)[C@@H]1O [sucrose] | significantly decreased | – | near background levels | – |
| FcIII-BCN-GN3 (peptide) | – | – | – | uptake of human IgG by HepG2 cells; most effective concentration of FcIII-BCN-GN3 [6]: 1 µM |
| FcIII-GN3 (oxidized cyclized form) (peptide) | – | – | – | uptake of Alexa 488-labeled human IgG by HepG2 cells; concentration of FcIII-GN3 giving maximal uptake [6]: 200 nM |
